Data: the supplement of paper PMC10307832

What was measured:
Experiment in all cases: relative viability (nuclei count vs DMSO), 5 days (fraction); higher = more cells survive
QS11 + Palbociclib = compound: C1CC2=C(C1)C=C(C=C2)OC3=NC(=C4C(=N3)N(C=N4)CC5=CC=C(C=C5)C6=CC=CC=C6)N[C@@H](CC7=CC=CC=C7)CO [QS11] + CC(=O)c1c(C)c2cnc(Nc3ccc(N4CCNCC4)cn3)nc2n(C2CCCC2)c1=O [Palbociclib] (partner 0.5 µM)
Summary of the method: (§1)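 Cells from lung cancer lines were seeded into 1536-well plates and, one day later, dosed by pin tool. Treatments were either a single drug or a fixed dose of an anchor drug with five library-drug doses (not always all listed) in √10 steps. After 5 days, nuclei were stained in a one-step fixation (final 0.05% Triton X-100, 1% formaldehyde, 1 ug/ml Hoechst) and counted on 4× images, and relative viability is the treated-to-vehicle nuclei ratio, as the median of duplicate plates.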

[1] = compound: C[As](C)SC[C@H](NC(=O)CC[C@H](N)C(=O)O)C(=O)NCC(=O)O [Darinaparsin] + N=C(N)NC(=N)NCCc1ccccc1 [Phenformin] (partner 250 µM)
Summary of the method: as §1

AZ628 + Phenformin = compound: CC1=C(C=C(C=C1)NC(=O)C2=CC(=CC=C2)C(C)(C)C#N)NC3=CC4=C(C=C3)N=CN(C4=O)C [AZ628] + N=C(N)NC(=N)NCCc1ccccc1 [Phenformin] (partner 250 µM)
Summary of the method: as §1

AZ628 + Olaparib = compound: CC1=C(C=C(C=C1)NC(=O)C2=CC(=CC=C2)C(C)(C)C#N)NC3=CC4=C(C=C3)N=CN(C4=O)C [AZ628] + O=C(c1cc(Cc2n[nH]c(=O)c3ccccc23)ccc1F)N1CCN(C(=O)C2CC2)CC1 [Olaparib] (partner 8 µM)
Summary of the method: as §1

Cell Line | relative viability (QS11 + Palbociclib; first compound 0.08 µM) | relative viability (QS11 + Palbociclib; first compound 0.253 µM) | relative viability (QS11 + Palbociclib; first compound 0.8 µM) | relative viability (QS11 + Palbociclib; first compound 2.53 µM) | relative viability (QS11 + Palbociclib; first compound 8 µM) | relative viability ([1]; first compound 0.08 µM) | relative viability ([1]; first compound 0.8 µM) | relative viability ([1]; first compound 2.53 µM) | relative viability ([1]; first compound 8 µM) | relative viability (AZ628 + Phenformin; first compound 0.08 µM) | relative viability (AZ628 + Phenformin; first compound 0.253 µM) | relative viability (AZ628 + Phenformin; first compound 0.8 µM) | relative viability (AZ628 + Phenformin; first compound 2.53 µM) | relative viability (AZ628 + Phenformin; first compound 8 µM) | relative viability (AZ628 + Olaparib; first compound 0.08 µM) | relative viability (AZ628 + Olaparib; first compound 0.253 µM) | relative viability (AZ628 + Olaparib; first compound 0.8 µM) | relative viability (AZ628 + Olaparib; first compound 2.53 µM) | relative viability (AZ628 + Olaparib; first compound 8 µM)
NCI-H1793 | 0.335 | 0.274 | 0.29 | 0.404 | 0.491 | 0.358 | 0.435 | 0.327 | 0.422 | 0.433 | 0.25 | 0.333 | 0.314 | 0.302 | 0.971 | 0.805 | 0.717 | 0.819 | 0.445
HARA | 0.256 | 0.212 | 0.186 | 0.252 | 0.259 | 0.542 | 0.416 | 0.38 | 0.728 | 0.527 | 0.402 | 0.409 | 0.465 | 0.376 | 0.762 | 0.764 | 0.869 | 0.84 | 0.51
NCI-H2347 | 0.375 | 0.476 | 0.414 | 0.4 | 0.354 | 0.451 |  | 0.396 | 0.403 | 0.267 | 0.392 | 0.493 | 0.324 | 0.205 | 0.516 | 0.537 | 0.506 | 0.594 | 0.43
ABC-1 | 0.805 | 0.782 | 0.652 | 0.64 | 0.5 | 0.256 | 0.21 | 0.234 | 0.264 | 0.274 | 0.188 | 0.205 | 0.211 | 0.235 | 0.987 | 0.712 | 0.868 | 0.508 | 0.732
NCI-H2342 | 0.52 | 0.541 | 0.515 | 0.474 | 0.491 | 0.596 | 0.627 | 0.567 | 0.628 | 0.657 | 0.469 | 0.653 | 0.65 | 0.646 | 0.447 | 0.401 | 0.479 | 0.449 | 0.431
NCI-H2126 | 0.345 | 0.381 | 0.341 | 0.343 | 0.304 | 0.521 | 0.511 | 0.524 | 0.556 | 0.524 | 0.542 | 0.491 | 0.484 | 0.545 | 0.932 | 0.875 | 0.874 | 0.935 | 0.972
HOP-62 | 0.471 | 0.517 | 0.455 | 0.369 | 0.281 | 0.964 | 0.759 | 0.494 | 0.8 | 0.792 | 0.821 | 0.707 | 0.746 | 0.437 | 0.543 | 0.359 | 0.633 | 0.68 | 0.39
NCI-H2085 | 0.474 | 0.509 | 0.402 | 0.433 | 0.475 | 0.852 | 0.797 | 0.706 | 0.747 | 0.83 | 0.662 | 0.784 | 0.636 | 0.583 | 0.805 | 0.756 | 0.895 | 0.865 | 0.703
NCI-H1944 | 0.312 | 0.344 |  | 0.275 | 0.254 | 0.217 | 0.207 | 0.216 | 0.192 | 0.188 | 0.181 | 0.184 | 0.177 | 0.187 | 0.416 | 0.42 | 0.411 | 0.329 | 0.365
EMC-BAC-2 | 0.515 | 0.545 | 0.43 | 0.443 | 0.406 | 0.559 | 0.505 | 0.514 | 0.559 | 0.584 | 0.57 | 0.432 | 0.602 | 0.505 | 0.566 | 0.581 | 0.612 | 0.558 | 0.746
NCI-H2228 | 0.753 | 0.741 | 1.06 | 0.641 | 1.01 | 0.254 | 0.281 | 0.328 | 0.387 | 0.25 | 0.274 | 0.252 | 0.218 | 0.206 | 0.585 | 0.583 | 0.847 | 0.698 | 0.541
A-427 | 0.553 | 0.582 |  | 0.551 | 0.574 | 0.348 | 0.316 | 0.298 | 0.36 | 0.207 | 0.242 | 0.25 | 0.245 | 0.181 | 0.85 | 0.73 | 0.773 | 0.691 | 0.541
EPLC-272H |  | 0.315 | 0.31 | 0.305 | 0.31 |  | 0.237 | 0.251 | 0.267 | 0.419 | 0.37 | 0.363 | 0.302 | 0.2 | 0.492 | 0.663 | 0.603 | 0.568 | 0.452
A549 |  |  |  |  |  | 0.121 | 0.114 | 0.192 | 0.163 | 0.19 | 0.161 | 0.136 | 0.135 | 0.141 | 0.299 | 0.28 | 0.495 | 0.348 | 0.199
NCI-H358 | 0.132 | 0.128 | 0.134 | 0.159 | 0.118 | 0.429 | 0.387 | 0.331 | 0.376 | 0.32 | 0.208 | 0.216 | 0.222 | 0.216 | 0.567 | 0.457 | 0.361 | 0.417 | 0.295
NCI-H2009 | 0.203 | 0.233 | 0.209 | 0.181 | 0.17 | 0.511 | 0.52 | 0.475 | 0.55 | 0.447 | 0.395 | 0.283 | 0.346 | 0.273 | 0.711 | 0.778 | 0.862 | 0.789 | 0.461
HCC-827 | 0.527 | 0.501 | 0.445 | 0.599 | 0.479 | 0.41 | 0.417 | 0.331 | 0.435 | 0.445 | 0.421 | 0.434 | 0.374 | 0.335 | 0.652 | 0.621 | 0.704 | 0.661 | 0.528
